In data set [1] the target is T1, BTYR (TYR crude enzyme extract from B16F10 cells) (Mus musculus, UniProt P11344).
T1 construct: The lysates, called BTYR, were centrifuged at 12,000 rpm for 10 min at 4 °C; endogenous in cells; host or cells: B16F10 murine melanoma cells
T1 sequence (P11344 19-533): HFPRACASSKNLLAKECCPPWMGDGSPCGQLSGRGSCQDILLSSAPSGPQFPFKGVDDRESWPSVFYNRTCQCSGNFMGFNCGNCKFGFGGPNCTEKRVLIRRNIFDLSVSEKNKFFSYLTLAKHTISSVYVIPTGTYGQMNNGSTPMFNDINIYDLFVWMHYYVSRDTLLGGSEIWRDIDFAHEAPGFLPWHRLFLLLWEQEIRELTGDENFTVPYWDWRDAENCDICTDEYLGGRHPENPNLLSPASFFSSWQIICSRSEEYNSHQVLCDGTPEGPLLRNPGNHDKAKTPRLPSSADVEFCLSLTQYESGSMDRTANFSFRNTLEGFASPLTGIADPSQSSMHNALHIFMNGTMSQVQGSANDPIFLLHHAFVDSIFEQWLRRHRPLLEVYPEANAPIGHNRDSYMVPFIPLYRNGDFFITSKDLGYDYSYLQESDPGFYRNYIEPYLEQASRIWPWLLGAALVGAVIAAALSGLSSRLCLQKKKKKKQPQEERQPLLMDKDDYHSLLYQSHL
Nature of the data set: BTYR directly inhibitory activity (TYR extraction followed by sample treatment, non-cellular system). The data set is classed as biochemical, murine.
Protocol: B16F10 cells at the exponential phase in 10 cm^2 cell culture dish were washed with D-PBS two times and incubated for 30 min at −20 °C in 1.16 mL of lysis buffer. The lysates, called BTYR, were centrifuged at 12,000 rpm for 10 min at 4 °C.
The reaction system in 96-well plate was 100 μL. 20 μL of BTYR was mixed with 20 μL compounds and incubated at 25 °C for 10 min, then 60 μL of 8 mM L-DOPA was added to start the reaction. A Synergy H1 microplate reader (BioTek Instruments, Inc., Winooski, VT, USA) was used to dynamically monitor the optical densities at 475 nm. Absorbance was measured every minute and sustained 30 min. The initial velocity (v0) of each reaction was represented by the slope of the initial linear range of the progress curve, and was used to calculate the relative enzyme activity of each treatment [16].
BTYR directly inhibitory activity compared to negative control could be expressed by following formula [16]. Δsample = sample − sample control, Δcontrol = negative control − blank control(1) kΔsample = (Δsamplet1 − Δsamplet0)/(t1 − t0), kΔcontrol = (Δcontrolt1 − Δcontrolt0)/(t1 − t0)(2) (3) BTYR direct inhibition %=1−kΔsample/kΔcontrol×100 […]

For data set [2], the target named is T2, BTYR (intracellular TYR of B16F10 cells) (Mus musculus, UniProt P11344).
T2 construct: The lysates, called BTYR, were centrifuged at 12,000 rpm for 10 min at 4 °C; endogenous in cells; host or cells: B16F10 murine melanoma cells
T2 sequence (P11344 19-533): T1 sequence (P11344 19-533)
Nature of the data set: BTYR indirectly inhibitory activity in cells cultured by compounds. The data set is classed as cell-based, murine. Here is the method:
Referring to our previous methods. In short, B16F10 murine melanoma cells from Stem Cell Bank (Chinese Academy of Sciences, Shanghai, China) were cultured in DMEM supplemented with 10% FBS in a humidified atmosphere of 5% CO2 at 37 °C.
The BTYR indirectly inhibitory activity was assayed according to our previous procedure with slight modification. Cells were cultured by complete medium containing compounds for 48 h and lysed by 120 μL of lysis buffer to obtain crude BTYR extract. […] The molarities of EGCG were 25, 50, 100, 125, 150, 175 and 200 μM. The treatment group without samples was negative control.
In a reaction system of 100 μL, 20 μL of BTYR was mixed with 60 μL of 8 mM L-DOPA (the remaining volume was supplemented with 20 mM pH 6.8 PBS), and immediately placed at 475 nm for dynamic detection for 30 min. The absorbance was measured once per minute. The control group containing only BTYR (blank control and sample control) was set for synchronous detection to exclude background interference.
With negative control as the reference, the indirectly inhibitory activity of BTYR was calculated in the same way as in Section 4.2.

Data set [3] concerns B16F10 cells. Description: Cell viability (CCK-8). The data set is classed as cell-based, murine. Here is the method: (§1) Referring to our previous methods. […] Measurement of cell viability was determined according to our previous procedure. In brief, cells were seeded into 96-well plates at a density of 1 × 10^4 cells/well and incubated for 24 h. Then, the culture medium was replaced with complete medium containing compound and further incubated at 37 °C for 48 h. After rinsing once with D-PBS, 100 µL DMEM containing 10% CCK-8 was added to each well. Followed by another 1 h incubation, the absorbance at 450 nm was measured. […] The cell viability was expressed as a percentage of the control.

In data set [4] the test system is ATYR (crude TYR extracted from apple). Nature of the data set: ATYR directly inhibitory activity. Type of data set: biochemical. Conditions: for IC50: sample in direct contact with ATYR, kojic acid inhibits only at high concentration (800–4000 µM). Here is the method: The preparation of fresh-cut apple slices was the same as in Section 4.4. The preparation of crude ATYR was carried out by reference and slightly adjusted. […] Finally, these apple slices were used to extract ATYR. […] After the supernatant was divided, it was quick-frozen with liquid nitrogen, and then stored in the refrigerator at −80 °C. The supernatant was used for ATYR activity analysis. In a reaction system of 200 μL, 40 µL ATYR was mixed with 40 µL corresponding compound in 96-well plates. After incubated at 25 °C for 10 min, L-DOPA (120 µL, 8 mM) was added to each well as a substrate. Once the substrate was added in reaction system, the formation of dopachrome was immediately measured at 475 nm for 30 min at 1 min intervals. […] The group setting and the calculation of ATYR directly inhibitory activity were the same as in Section 4.2.

The test system is the same in data set [5]. Nature of the data set: ATYR indirectly inhibitory activity (apple slices soaked, then enzyme extracted). The note with it: apple slices soaked in 1 mM for 10 min; water 0 ± 4% as negative control; negative = promotion. Here is the method: The preparation of fresh-cut apple slices was the same as in Section 4.4. The preparation of crude ATYR was carried out by reference and slightly adjusted. […] Finally, these apple slices were used to extract ATYR. […] After the supernatant was divided, it was quick-frozen with liquid nitrogen, and then stored in the refrigerator at −80 °C. The supernatant was used for ATYR activity analysis. Apple slices, immersing in various test solutions for 10 min, were used to extract crude ATYR solution. […] The control group containing only ATYR (blank control and sample control) was set for synchronous detection to exclude background interference. With negative control as the reference, the indirectly inhibitory activity of ATYR was calculated in the same way as in Section 4.2.

Data set [6] has as its target T3, MTYR (mushroom TYR) (Agaricus bisporus, UniProt C7FF04). Description: MTYR directly inhibitory activity. The data set is classed as biochemical. Here is the method:
The MTYR directly inhibitory activity was assayed according to our previous procedure. Briefly, the reaction media was 200 µL in 96-well plates. MTYR (40 µL, 30 U/mL) in PBS (20 mM, pH 6.8) was incubated with the corresponding compound (40 µL) at 25 °C for 10 min. Then, L-DOPA ([…], 8 mM) was added to each well as a substrate. The other steps and the calculation of MTYR directly inhibitory activity were the same as above method in Section 4.2.

In data set [7] the target is T3, MTYR (mushroom TYR). Nature of the data set: Kinetic analysis of MTYR (Lineweaver-Burk). The data set is classed as biochemical. Conditions: L-DOPA substrate. Here is the method:
The experimental method was the same as Section 4.8, except for the substrate concentration and compound concentration. A series of experiments were performed to determine the type of inhibition.
The molarities of L-DOPA were 0.0625, 0.25, 1, 4 and 8 mM. […] The Km and Vmax of MTYR were determined by the Michaelis–Menten equation. The Lineweaver–Burk plot was used to display the data. Secondary replot of Lineweaver–Burk plot or intercept was used to display inhibition constant (Ki) and α.

Data set [8] deals with B16F10 cells. Description: Intracellular melanin content. The data set is classed as cell-based, murine. Conditions: 100 μg/mL, α-MSH stimulated B16F10 cells, 48 h. Here is the method:
Measurement of intracellular melanin content was determined according to our previous procedure. Briefly, Cells were cultured by complete medium containing compounds for 48 h. Then, intracellular melanin was extracted by 1 M NaOH containing 10% DMSO. The absorbance of the dissolved melanin was obtained using a microplate reader at 405 nm. The melanin content of each treatment group was calculated with the negative control group as reference.

Data set [9] has as its system BTYR mRNA. Description: qPCR analysis of TYR gene. Type of data set: cell-based, murine. The note with it: 100 μg/mL, 24 h, α-MSH stimulated. Here is the method: Measurement of mRNA expression of TYR was determined according to our previous procedure. […] Total RNAs prepared were followed and qPCR analysis of TYR were carried on with β-actin as an internal control.
(Quantitative PCR measures a nucleic acid by following its amplification.)

Data set [10] has as its system B16F10 cells. Conditions: previous studies; cited from earlier work.
Data set [11] concerns MTYR. The note with it: cited from earlier work.
The test system of data set [12] is HMV-II. More on the design: method as in PMID 15056856. The note with it: concentration lower than 1 mM; cited from earlier work.
Data set [13] concerns HTYR. Conditions: cited from earlier work.
A short description of data set [14]: Cell viability (CCK-8). Type of data set: cell-based, murine. The note with it: mouse, B16F10 melanoma cells, 48 h. Here is the method: as §1

Molecules are shown by their SMILES. Like-named read-outs stand apart in the source and are kept apart here.

T3 sequence (C7FF04 1-392): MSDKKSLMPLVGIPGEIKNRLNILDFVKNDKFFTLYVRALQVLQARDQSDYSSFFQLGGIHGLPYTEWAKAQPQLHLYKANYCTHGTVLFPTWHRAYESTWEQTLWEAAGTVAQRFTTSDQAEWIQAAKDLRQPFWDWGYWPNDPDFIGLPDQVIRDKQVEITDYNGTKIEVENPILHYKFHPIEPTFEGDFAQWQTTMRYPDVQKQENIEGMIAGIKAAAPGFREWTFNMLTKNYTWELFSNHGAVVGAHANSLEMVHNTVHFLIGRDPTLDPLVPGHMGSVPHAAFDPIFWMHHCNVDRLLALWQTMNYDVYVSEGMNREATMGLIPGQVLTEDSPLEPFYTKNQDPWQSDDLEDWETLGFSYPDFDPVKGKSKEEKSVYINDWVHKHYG
T3 sequence (G1K3P4 1-150 partner): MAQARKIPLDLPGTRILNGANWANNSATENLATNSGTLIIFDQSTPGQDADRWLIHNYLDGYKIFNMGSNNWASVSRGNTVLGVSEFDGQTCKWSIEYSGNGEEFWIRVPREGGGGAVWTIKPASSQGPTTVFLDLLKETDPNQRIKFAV

For `O=C(O[C@@H]1Cc2c(O)cc(O)cc2O[C@@H]1c1cc(O)c(O)c(O)c1)c1cc(O)c(O)c(O)c1` [EGCG, Epigallocatechin gallate], the “catalytic activity of BTYR in non-cellular system” value in data set [1] (100 μg/mL) is reported as “could not”. Further, the “BTYR direct inhibition rate” value in [1] (0.025–2.4 mM EGCG) is reported as < 50%. Further, in data set [2] (100 μg/mL, α-MSH stimulated B16F10 cells, 48 h), the “intracellular BTYR activity” value is reported as “inhibit intracellular BTYR activity”. In addition, the half-maximal inhibitory concentration (IC50) was found to be 195 ± 3 µM in [2] (cells cultured with compound 48 h, then TYR extracted); 1770 ± 20 µM in data set [4]; 1420 ± 61 µM in data set [6] (L-DOPA substrate). In addition, the “Cell Viability (%)” value came out at 100 ± 2% in data set [3] (25 µM, 48 h); 98 ± 2% in [3] (50 µM, 48 h); 95 ± 6% in [3] (100 µM, 48 h); 106 ± 1% in data set [3] (200 µM, 48 h); 66 ± 4% in [3] (400 µM, 48 h); 4 ± 0% in data set [3] (600 µM, 48 h). In addition, the “Cell Viability (%)” value in [3] (800 µM, 48 h) was 2 ± 1%; in [3] (1000 µM, 48 h), 1 ± 1%; in data set [3] (1200 µM, 48 h), −1 ± 0%. In addition, the “ATYR indirectly inhibitory activity” value in [5] is recorded as −7 ± 7%. For the same compound, the “MTYR directly inhibitory activity relative to kojic acid” value in data set [6] (ratio of IC50) is 1/15. In addition, the Inhibition type entry in [7] is reported as “competitive”. The “Km (change with increasing compound molarity)” value in data set [7] is recorded as “increasing”. Further, in data set [7], the “Vmax (change with increasing compound molarity)” value is on record as “constant”. The compound also showed a Ki in data set [7] (replot of Lineweaver–Burk slopes) of 170 µM. Further, the intracellular melanin content entry in data set [8] is “significantly reduce”. For the same compound, the “mRNA expression of BTYR in cells” value in [9] is “significantly inhibit”. In addition, the “concentration significantly reducing melanin content of B16F10 cells in a dose-dependent manner” value in [10] is 55 to 218 µM.

Take `OC[C@H]1O[C@H](Oc2ccc(O)cc2)[C@H](O)[C@@H](O)[C@@H]1O` [α-arbutin]: the “inhibition of the diphenolase activity of MTYR” value in [11] is recorded as “could not inhibit”. Also, the “effect on growth of HMV-II” value in [12] is “did not inhibit the growth”.

With `OC[C@H]1O[C@@H](Oc2ccc(O)cc2)[C@H](O)[C@@H](O)[C@@H]1O` [β-arbutin], the “Cell Viability (%)” value in data set [3] (25 µM) came to 108 ± 2%; in data set [3] (50 µM), 115 ± 4%; in data set [3] (100 µM), 125 ± 2%; in data set [3] (200 µM), 138 ± 3%; in [3] (400 µM), 171 ± 1%; in [3] (600 µM), 195 ± 3%. The “Cell Viability (%)” value in data set [3] (800 µM) amounted to 206 ± 0%; in data set [3] (1000 µM), 211 ± 1%; in [3] (1200 µM) it was 222 ± 2%. In data set [4] (0.025–320 mM β-arbutin, direct), the “promotion of ATYR activity (max)” value is ≤ 21%. Besides, the “ATYR indirectly inhibitory activity” value in [5] turned out to be 80 ± 0%. For the same compound, the “concentration significantly reducing melanin content of B16F10 cells in a dose-dependent manner” value in [10] was 43.8 to 700 µM. The IC50 in data set [11] (read-out: IC50, diphenolase activity of MTYR) is 8400 µM.

With `Oc1ccc(O)cc1` [hydroquinone], the IC50 is 1.1 µM in data set [11] (read-out: IC50 on MTYR) and 4400 µM in data set [13] (read-out: IC50 on HTYR). Also, the “activity on HTYR relative to that on MTYR” value in data set [13] was 1/4000.

In the case of `O=c1cc(CO)occ1O` [kojic acid], the viability at 48 h, 25 µM in [14] (25 µM) was found to be 100 ± 4%. In addition, in [14] (50 µM), the viability at 48 h, 50 µM was 101 ± 2%. Besides, the viability at 48 h, 100 µM in data set [14] (100 µM) worked out at 95 ± 1%. In addition, the viability at 48 h, 200 µM in data set [14] (200 µM) came to 90 ± 3%. Further, in [14] (400 µM), the viability at 48 h, 400 µM is 90 ± 3%. Besides, the viability at 48 h, 600 µM in [14] (600 µM) turned out to be 96 ± 5%. Moreover, in [14] (800 µM), the viability at 48 h, 800 µM worked out at 99 ± 4%. Further, the EC50 in data set [4] (low concentration (12.5–400 µM) of kojic acid, read-out: EC50, promotion of ATYR activity) stood at 96 ± 4 µM. The same compound gave an IC50 in data set [4] of 2110 ± 20 µM. Further, the “ATYR indirectly inhibitory activity” value in [5] was −71 ± 4%. The intracellular melanin content result in data set [8] is “significantly reduce”. Moreover, the “mRNA expression of BTYR in cells” value in data set [9] is on record as “significantly inhibit”. For the same compound, the “concentration significantly reducing melanin content of B16F10 cells in a dose-dependent manner” value in [10] is 175 to 700 µM.

The IC50 is the concentration that gives 50% inhibition. Usually Ki stands for a dissociation constant, usually derived from enzyme kinetics or from competition with a known ligand. Read a low Ki as tighter binding. The viability is a read-out of living cells in per cent, often relative to untreated cells. The term EC50 denotes the concentration giving half of the maximal effect.

The values above are taken from paper PMC10093845, “Inhibitory Activities of Samples on Tyrosinases Were Affected by Enzyme Species and Sample Addition Methods” (International Journal of Molecular Sciences, 2023).
